{
  "source": "patent US20110166079A1",
  "about": "“METHODS OF TREATING CANCER WITH APOE PEPTIDES” (COGNOSCI, INC., priority 2008, published 2011)",
  "key": {"IκB": {"test_system": "IκB", "assay": "LPS-induced phosphorylation of IκB in BV2 microglia (Western blot)", "type": "cell-based, mouse", "details": "100 ng/mL LPS, 5 μM COG133, FIG. 2A", "description": "To determine whether COG peptides modulated the PI-3 kinase/Akt pathway and subsequent activation of NFκB, the phosphorylation state of proteins in the pathway was analyzed in cells exposed to bacteria or a bacterial antigen (lipopolysaccharide) in the absence and presence of COG peptides. In a first series of experiments, mouse BV2 microglia in six well plates were incubated with 100 ng/mL of LPS alone or in the presence of 5 μM COG133 (SEQ ID NO: 1) peptide. Cells were lysed and a clarified extract prepared by centrifugation. Polyacrylamide gels were loaded with 30 μg of extract per lane and run in SDS buffer. […] Membranes were then probed with an anit-phospho-IκBα antibody. Membranes were developed with Enhanced Chemiluminescence substrates (GE healthcare) and visualized by exposure to film. Membranes were then stripped and reprobed for total IκB using a non phospho-specific anti-IκBα antibody. A duplicate blot was probed with anti-GAPDH antibodies."}, "NFκB": {"test_system": "NFκB", "assay": "NFκB nuclear translocation in LPS-stimulated BV2 microglial cells (gel shift)", "type": "cell-based, mouse", "details": "nuclear extracts, FIG. 2B", "description": "In the dephosphorylated state, IκB binds to the transcription factor NFκB and prevents it from translocating to the nucleus to activate transcription of pro-survival proteins. […] A radiolabeled oligonucelotide containing a NFκB binding site was added to the proteins from the nuclear extracts and the proteins were subsequently separated by non-denaturing polyacrylamide gel electrophoresis. The amount of NFκB present in the nuclear extracts was detected by autoradiography (FIG. 2B). Nuclear NFκB was reduced in the presence of COG133 providing further evidence that this signal transduction cascade is suppressed in cells treated with ApoE peptides."}, "B-CLL cells": {"test_system": "B-CLL cells", "assay": "Cytotoxicity on B-CLL cells from CLL patients (MTS assay)", "details": "for Fold Change: EC50 relative to COG056 control", "description": "To determine whether COG peptides could counteract the overactivation of the Akt/NFkB pathway in B-CLL cells and effectively induce apoptosis, cytotoxicity testing was performed on freshly isolated B-CLL cells from CLL patients with COG peptides. Blood from CLL patients was collected and CD5+/CD19+ CLL cells were isolated using the RosetteSep™ Human B Cell Enrichment Cocktail. This method depletes whole blood of T cells, monocytes, and NK cells using a proprietary antibody cocktail containing anti-CD14, anti-CD2 and anti-CD16 antibodies to remove T cells, monocytes, and NK cells, respectively. The antibody cocktail crosslinks unwanted cells in human whole blood to multiple red blood cells forming immunorosettes thereby increasing the density of the rosetted cells, such that they pellet along with the free RBCs when centrifuged over a buoyant density medium such as Ficoll-Paque®. The highly enriched B-cell or B-CLL cells are left at the interface between Ficoll and the plasma.\nCOG peptides were applied to the isolated B-CLL cells (0.25×10^6 cells/well in a 96 well plate) for 72 hours, after which viable cells were assessed using the MTS assay ([…]).\nAdditional B-CLL cells and peripheral blood mononuclear cells (PBMC; i.e., normal B cells) were isolated from leukemia patients and normal volunteers, respectively, and were treated with a range of COG112 concentrations."}, "microglial cells": {"test_system": "microglial cells", "details": "relative to COG133, microglial cells; cited from earlier work"}, "PP2A": {"biological_target": "T1, PP2A (Mus musculus, UniProt P63330)", "T1 construct": "cells were lysed and PP2A was immunoprecipitated by adding an antibody targeted to the catalytic C-subunit of PP2A; endogenous in cells; host or cells: mouse macrophagic RAW cells", "T1 sequence (P63330 whole entry)": "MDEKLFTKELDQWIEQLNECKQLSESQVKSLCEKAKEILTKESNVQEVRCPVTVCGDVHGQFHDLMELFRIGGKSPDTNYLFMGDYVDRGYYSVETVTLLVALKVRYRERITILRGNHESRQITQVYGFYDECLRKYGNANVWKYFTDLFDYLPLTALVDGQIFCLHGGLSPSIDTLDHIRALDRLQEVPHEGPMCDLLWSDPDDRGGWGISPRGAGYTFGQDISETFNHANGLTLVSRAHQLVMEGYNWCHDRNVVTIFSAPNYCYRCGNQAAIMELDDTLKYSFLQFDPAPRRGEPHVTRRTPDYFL", "assay": "PP2A activity in RAW cells (immunoprecipitation / phosphate release)", "type": "cell-based", "details": "30 minutes, 2 μM COG112, 10 nM okadaic acid, FIG. 3", "description": "Mouse macrophagic RAW cells were incubated with either 2 μM COG112 (SEQ ID NO: 2), 10 nM okadaic acid (an inhibitor of PP2A), or okadaic acid and COG112. After 30 minutes, cells were lysed and PP2A was immunoprecipitated by adding an antibody targeted to the catalytic C-subunit of PP2A. Half of the immunoprecipitate was separated by SDS-PAGE, blotted on to nitrocellulose, and probed with an anti-PP2AC antibody. The remaining portion was assayed for activity by adding 125 μL assay cocktail containing a phospho-threonine substrate peptide to the immunoprecipitated enzyme. After incubating at 37° C. with shaking, a 25 μL aliquot was removed and added to an ammonium molybdate solution (Upstate) that chelates free phosphate and changes color upon chelate formation. Aliquots were removed at various time intervals and the amount of free phosphate released from the peptide was determined by comparison to a phosphate standard curve. The rate of phosphate release was determined by linear fit to the time course data and was normalized to the relative PP2A concentration. […] PP2A activity was reduced in the presence of okadaic acid alone as expected. […] Thus, the active pool of PP2A in a cell can be regulated by ApoE peptides."}, "[1]": {"details": "B-CLL cells, 72 hours, MTS assay"}},
  "note": "Read-outs that look alike come from different tables or passages of the source. Non-standard residues stand in square brackets, D forms with d. Residues, ends and D or L forms follow the SMILES beside them. No end group written: not given here. Arg(NO2) = N=C(NCCC[C@H](N)C(=O)O)N[N+](=O)[O-]; Aib = CC(C)(N)C(=O)O",
  "data": [
    {"compound": "CC(=O)N[C@@H](CC(C)C)C(=O)N[C@@H](CCCNC(=N)N)C(=O)N[C@H](C(=O)N[C@@H](CCCNC(=N)N)C(=O)N[C@@H](CC(C)C)C(=O)N[C@@H](C)C(=O)N[C@@H](CO)C(=O)N[C@@H](Cc1c[nH]cn1)C(=O)N[C@@H](CC(C)C)C(=O)N[C@@H](CCCNC(=N)N)C(=O)N[C@@H](CCCCN)C(=O)N[C@@H](CC(C)C)C(=O)N[C@@H](CCCNC(=N)N)C(=O)N[C@@H](CCCCN)C(=O)N[C@@H](CCCNC(=N)N)C(=O)N[C@@H](CC(C)C)C(=O)N[C@@H](CC(C)C)C(N)=O)C(C)C", "note": "[COG133]", "values": [
      {"measurement": "LPS-induced phosphorylation of IκB", "setting": "IκB", "result": "reduces"},
      {"measurement": "nuclear NFκB", "setting": "NFκB", "result": "reduced"},
      {"measurement": "cytotoxic activity compared in words", "setting": "B-CLL cells; [1]", "result": "slightly improved activity relative to the COG056"},
      {"measurement": "Fold Change", "setting": "B-CLL cells", "result": 2.9}
    ]},
    {"compound": "CC(C)C[C@H](NC(=O)[C@H](CC(C)C)NC(=O)[C@H](CCCNC(=N)N)NC(=O)[C@H](CCCCN)NC(=O)[C@H](CCCNC(=N)N[N+](=O)[O-])NC(=O)[C@H](CC(C)C)NC(=O)[C@H](CCCNC(=N)N)NC(=O)[C@H](CCCCN)NC(=O)[C@H](CC(C)C)NC(=O)C(C)(C)NC(=O)[C@H](CO)NC(=O)[C@H](C)NC(=O)[C@H](CC(C)C)NC(=O)[C@H](CCCNC(=N)N)NC(=O)[C@@H](NC(=O)[C@H](CCCNC(=N)N)NC(=O)[C@@H](N)CC(C)C)C(C)C)C(=O)O", "note": "[COG248, LRVRLAS(Aib)LKRL(nitroR)KRLL] (H-LRVRLAS[Aib]LKRL[Arg(NO2)]KRLL-OH)", "values": [
      {"measurement": "cytotoxic activity compared in words", "setting": "B-CLL cells; [1]", "result": "enhanced activity compared to COG133"},
      {"measurement": "Fold Change", "setting": "B-CLL cells", "result": 5.5}
    ]},
    {"compound": "CC(=O)N[C@@H](C)C(=O)N[C@@H](CO)C(=O)NC(C)(C)C(=O)N[C@@H](CC(C)C)C(=O)N[C@@H](CCCNC(=N)N)C(=O)N[C@@H](CCCCN)C(=O)N[C@@H](CC(C)C)C(=O)NC(C)(C)C(=O)N[C@@H](CCCCN)C(=O)N[C@@H](CCCNC(=N)N)C(=O)N[C@@H](CC(C)C)C(=O)N[C@@H](CC(C)C)C(N)=O", "note": "[COG1410, Ac-AS-Aib-LRKL-Aib-KRLL-NH2] (Ac-AS[Aib]LRKL[Aib]KRLL-NH2)", "values": [
      {"measurement": "cytotoxic activity compared in words", "setting": "B-CLL cells", "result": "no difference in potency"},
      {"measurement": "Fold Change", "setting": "B-CLL cells", "result": 2.3},
      {"measurement": "EC50", "setting": "B-CLL cells; read-out: EC50 (cytotoxicity of COG compounds on B-CLL cells), isolated B-CLL cells, 72 hours, MTS assay", "result": "5.7 ± 3", "unit": "µM"},
      {"measurement": "potency for suppressing NO production", "setting": "microglial cells", "result": "improved potency"}
    ]},
    {"compound": "C=C1[C@@H](O)[C@@H]2O[C@]3(CC[C@H](/C=C/[C@@H](C)[C@@H]4CC(C)=C[C@@]5(O[C@H](C[C@@](C)(O)C(=O)O)CC[C@H]5O)O4)O3)CC[C@H]2O[C@@H]1[C@@H](O)C[C@H](C)[C@H]1O[C@@]2(CCCCO2)CC[C@H]1C", "note": "[okadaic acid, reference compound]", "values": [
      {"measurement": "PP2A activity (rate of phosphate release)", "setting": "PP2A", "result": "reduced"}
    ]},
    {"compound": "LLRKRLKRLHSALRVRL [COG056, reference compound]", "values": [
      {"measurement": "Fold Change", "setting": "B-CLL cells", "result": 1.0},
      {"measurement": "EC50", "setting": "B-CLL cells; human, 72 hours", "result": "12.9 ± 4.6", "unit": "µM"}
    ]}
  ]
}
